Reference: ChEMBL document CHEMBL1157568, “Toward biophysical probes for the 5-HT3 receptor: structure-activity relationship study of granisetron derivatives” (J Med Chem, 2010)
Calls of active or inactive are those of the source. The rule behind the calls is not given here.

Assays:
[1] = biological target: T1, 5-hydroxytryptamine receptor 3A (Homo sapiens, UniProt P46098); assay: Binding affinity to human 5HT3A receptor in HEK293 cells assessed as cell labeling by confocal microscopy; assay type: cell-based
T1 sequence (P46098 whole entry): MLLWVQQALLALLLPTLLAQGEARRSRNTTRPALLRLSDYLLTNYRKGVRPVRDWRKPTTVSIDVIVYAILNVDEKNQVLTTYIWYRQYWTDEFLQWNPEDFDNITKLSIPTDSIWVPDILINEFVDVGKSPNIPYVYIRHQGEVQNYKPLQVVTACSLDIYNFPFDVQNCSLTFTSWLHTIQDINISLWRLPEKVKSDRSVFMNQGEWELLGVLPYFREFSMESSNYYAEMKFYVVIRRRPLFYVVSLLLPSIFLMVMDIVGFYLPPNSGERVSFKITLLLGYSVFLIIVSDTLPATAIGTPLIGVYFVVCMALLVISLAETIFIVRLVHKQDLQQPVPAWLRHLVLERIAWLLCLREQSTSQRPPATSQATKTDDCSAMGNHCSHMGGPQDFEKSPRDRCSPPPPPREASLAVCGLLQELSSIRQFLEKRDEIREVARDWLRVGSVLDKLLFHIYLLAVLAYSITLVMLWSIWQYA

[2] = biological target: T2, 5-hydroxytryptamine receptor 3A (Homo sapiens) (UniProt P46098); assay: Binding affinity to human 5HT3A receptor in HEK293 cells assessed as cell labeling by confocal microscopy in presence of quipazine; assay type: cell-based
T2 sequence (whole entry): T1 sequence (P46098 whole entry)

Structure (SMILES): Cc1cc(C)n2c1C=C1C=CC(NCC(=O)NCCCn3nc(C(=O)N[C@H]4C[C@H]5CCC[C@@H](C4)N5C)c4ccccc43)=[N+]1[B-]2(F)F
- Ki [1]: 2.8 nM
- Activity [2]: Active
